Experimental data: patent US20210236512A1 (ZARODEX THERAPEUTICS LIMITED, priority 2018, published 2021)
Values joined by “and” are separate entries in the source; they are usually repeats but may differ in a detail not shown here. Equal values may be shown once. “Also recorded” adds a separate entry of the source. Read-outs that look alike come from different tables or passages of the source.

What was measured:
[1] = system: Immunoglobulin levels (IgG, IgA and IgM); assay: First observational study: serum immunoglobulin levels by nephelometry, clozapine-treated vs clozapine-naive patients; format: in vivo, human
[2] = in vivo; cited from earlier work
[3] = system: Vaccine specific-IgG (Haemophilus influenza B, Pneumococcus, Tetanus); conditions: human, in vivo
[4] = system: class switched memory B cells (CSMB), plasmablasts and other B cell subsets; conditions: for CSMB after clozapine stopped: one patient, after 24 months
[5] = system: total peripheral blood B-cells isolated from healthy donors; format: cell-based, human; conditions: clozapine 25-350 ng/ml, norclozapine 15-200 ng/ml, haloperidol 2-25 ng/ml
Experimental: The experiment was performed from four independent donors.

[6] = system: B cell subsets in spleen and inguinal lymph nodes; assay: Mouse CIA model: B cell subsets in spleen and lymph nodes by FACS; format: in vivo, DBA/1 mice
[7] = mouse, in vivo
[8] = system: B cell subsets in bone marrow; assay: Wild type mouse study: bone marrow B cell immunophenotyping by flow cytometry
[9] = Michel. L. et al., 2015; cited from earlier work
[10] = system: anti-type II collagen IgG1 and IgG2a; assay: Mouse CIA model: specific anti-collagen immunoglobulin by ELISA; format: in vivo, DBA/1 mice
[11] = human, in vivo; cited from earlier work
[12] = system: Specific antibody titres against Haemophilus influenzae, Tetanus and Pneumococcal capsular polysaccharide; set-up: species or system human; conditions: in vivo
[13] = system: Immunoglobulins (IgG, IgA, IgM); assay: Immunological assessment of referred patients taking clozapine: serum immunoglobulins; format: in vivo, human; conditions: for Serum IgG after clozapine stopped: 24 months after discontinuation; for Serum IgG at discontinuation of clozapine: starting value before recovery
[14] = sub-group A: all diagnoses, all smoking, secondary causes not excluded, n=123
[15] = sub-group A: all diagnoses, all smoking, secondary causes not excluded, n=123, listed as clozapine
[16] = sub-group B: possible secondary causes excluded, n=94
[17] = sub-group C: schizophrenia diagnoses only, secondary causes excluded, n=87
[18] = sub-group D: smokers only, secondary causes excluded, n=57
[19] = one line per patient of Table 3

Compound: CN1CCN(C2=Nc3cc(Cl)ccc3Nc3ccccc32)CC1 [Clozapine, clozapine]
- Concentrations / distribution of serum IgG, IgA and IgM vs clozapine-naive control group ([1]; FIG. 1A-D): significantly reduced; also recorded: leftward shift (reduction)
- Effect of duration of clozapine therapy on serum IgG levels ([1]; p 0.014, not observed in clozapine-naive patients): associated with lower serum IgG levels; also recorded: progressively reduced IgG levels
- Serum IgA <0.5 g/L, percentage of patients [1, 14]: 1.6%
- Serum IgA <0.6 g/L, percentage of patients [1, 14]: 2.4%
- Serum IgA <0.7 g/L, percentage of patients [1, 14]: 6.5%
- Serum IgA <0.8 g/L (below reference range 0.8-4.0 g/L), percentage of patients [1, 14]: 13.1% and 13.0%
- Serum IgG <3 g/L, percentage of patients [1, 14]: 0.8%
- Serum IgG <4 g/L, percentage of patients [1, 14]: 1.6%
- Serum IgG <5 g/L, percentage of patients [1, 14]: 3.3%
- Serum IgG <6 g/L (below reference range 6-16 g/L), percentage of patients [1, 14]: 9.8%
- Serum IgM <0.2 g/L, percentage of patients [1, 14]: 8.1%
- Serum IgM <0.3 g/L, percentage of patients [1, 14]: 16.3%
- Serum IgM <0.4 g/L, percentage of patients [1, 14]: 29.3%
- Serum IgM <0.5 g/L (below reference range 0.5-1.9 g/L), percentage of patients [1, 14]: 38.2%
- Serum IgA <0.8 g/L (below reference range 0.8-4.0 g/L), percentage of patients [1, 15]: 13.0%
- Serum IgG <6 g/L (below reference range 6-16 g/L), percentage of patients [1, 15]: 9.8%
- Serum IgM <0.5 g/L (below reference range 0.5-1.9 g/L), percentage of patients [1, 15]: 38.2%
- Serum IgA <0.5 g/L, percentage of patients [1, 16]: 2.1%
- Serum IgA <0.6 g/L, percentage of patients [1, 16]: 2.1%
- Serum IgA <0.7 g/L, percentage of patients [1, 16]: 6.4%
- Serum IgA <0.8 g/L (below reference range 0.8-4.0 g/L), percentage of patients [1, 16]: 13.8%
- Serum IgG <3 g/L, percentage of patients [1, 16]: 1.1%
- Serum IgG <4 g/L, percentage of patients [1, 16]: 1.1%
- Serum IgG <5 g/L, percentage of patients [1, 16]: 2.1%
- Serum IgG <6 g/L (below reference range 6-16 g/L), percentage of patients [1, 16]: 8.4%
- Serum IgM <0.2 g/L, percentage of patients [1, 16]: 5.3%
- Serum IgM <0.3 g/L, percentage of patients [1, 16]: 12.8%
- Serum IgM <0.4 g/L, percentage of patients [1, 16]: 26.6%
- Serum IgM <0.5 g/L (below reference range 0.5-1.9 g/L), percentage of patients [1, 16]: 34.0%
- Serum IgA <0.5 g/L, percentage of patients [1, 17]: 2.3%
- Serum IgA <0.6 g/L, percentage of patients [1, 17]: 3.5%
- Serum IgA <0.7 g/L, percentage of patients [1, 17]: 6.9%
- Serum IgA <0.8 g/L (below reference range 0.8-4.0 g/L), percentage of patients [1, 17]: 14.9%
- Serum IgG <3 g/L, percentage of patients [1, 17]: 1.2%
- Serum IgG <4 g/L, percentage of patients [1, 17]: 1.2%
- Serum IgG <5 g/L, percentage of patients [1, 17]: 2.3%
- Serum IgG <6 g/L (below reference range 6-16 g/L), percentage of patients [1, 17]: 9.2%
- Serum IgM <0.2 g/L, percentage of patients [1, 17]: 5.8%
- Serum IgM <0.3 g/L, percentage of patients [1, 17]: 12.6%
- Serum IgM <0.4 g/L, percentage of patients [1, 17]: 27.6%
- Serum IgM <0.5 g/L (below reference range 0.5-1.9 g/L), percentage of patients [1, 17]: 35.6%
- Serum IgA <0.5 g/L, percentage of patients [1, 18]: 3.5%
- Serum IgA <0.6 g/L, percentage of patients [1, 18]: 3.5%
- Serum IgA <0.7 g/L, percentage of patients [1, 18]: 3.5%
- Serum IgA <0.8 g/L (below reference range 0.8-4.0 g/L), percentage of patients [1, 18]: 10.5%
- Serum IgG <3 g/L, percentage of patients [1, 18]: 1.8%
- Serum IgG <4 g/L, percentage of patients [1, 18]: 1.8%
- Serum IgG <5 g/L, percentage of patients [1, 18]: 1.8%
- Serum IgG <6 g/L (below reference range 6-16 g/L), percentage of patients [1, 18]: 8.8%
- Serum IgM <0.2 g/L, percentage of patients [1, 18]: 1.78%
- Serum IgM <0.3 g/L, percentage of patients [1, 18]: 12.3%
- Serum IgM <0.4 g/L, percentage of patients [1, 18]: 26.3%
- Serum IgM <0.5 g/L (below reference range 0.5-1.9 g/L), percentage of patients [1, 18]: 33.3%
- LD50 [2]: 200 mg/kg
- Failed to develop an IgG response above >=50 mg/L following Pneumovax II [3]: 73%
- Failing to exceed the >=0.1 IU/mL post-vaccination Tetanus-IgG level [3]: 1/12
- Failing to mount a Haemophilus-IgG response >=1 mcg/ml post-Menitorix (HiB/MenC) vaccination [3]: 42%
- IgG to Haemophilus influenza B (HiB) <1 mcg/ml at initial assessment, patients [3]: 75%
- Pneumococcus-IgG <50 mg/L at initial assessment, patients [3]: 94%
- Response to haemophilus and/or pneumococcal vaccination, individual referred patient [3]: Failure to responds to; also recorded: Durable pneumococcal; also recorded: Non-durable
- Responses to vaccination impaired, patients / patients assessed [3]: 10/11
- Tetanus-IgG <0.1 IU/mL at initial assessment, patients [3]: 38%
- Marginal zone B cell numbers vs healthy control ([4]; FIG. 3B): no significant difference
- Total B cell numbers vs CVID and healthy controls ([4]; FIG. 3B): similar
- CSMB (reference range 6.5-29.1%), individual referred patient ([4]; class switched memory B cells as % of total CD19+ cells, one line per patient of Table 3, listed as clozapine): 1.58%
- Overall lymphopenia or B cell lymphopenia ([4]; human, in vivo): no severe overall lymphopenia or B cell lymphopenia
- CSMB after clozapine stopped [4]: CSM Brose to 2.77%
- CSMB after clozapine stopped ([4]; listed as clozapine): 2.77%
- Mean CSMB (reference range 6.5-29.1%) ([4]; referred clozapine-treated patients, p<0.0001 vs healthy controls): 1.87%
- Functional or phenotypic maturation of activated B cells to an early PC state [5]: no consistent inhibitory effect
- Ability of differentiated ASCs to secrete antibody (total IgM/IgG ELISA) ([5]; day 6 and day 9): no consistent effect
- Proportion of B220+ B cells in spleen ([6]; 10 mg/kg from day 1): significantly reduced
- Proportion of plasma cells in spleen ([6]; 10 mg/kg given on day 1): significant reduction
- Level of GL7 expression on follicular B cells in lymph node ([6]; all clozapine treatment groups vs vehicle, dose- and time-dependent): significantly decreased
- Percentage of B220+ B cells in lymph nodes ([6]; all doses and time points (5 or 10 mg/kg from day 1 or day 15)): significantly lower
- Lymph node follicular B cells (B220+IgD-Fas+GL7hi) ([6]; all doses/both time points): Strikingly significant reductions
- Plasma cell numbers in lymph node ([6]; all doses/times): no significant effect
- Plasma cells as a proportion of live cells in spleen compared to control ([6]; every other dose/time evaluated): nominally lower values
- Effects on thermoregulation [7]: effects on thermoregulation were also evident
- Sedative effects ([7]; ip, 5 mg/kg): Clear dose-related sedative effects
- Pro-B cell fraction in bone marrow ([8]; 10 mg/kg IP, 21 days): without any change
- Proportion of pre-pro B cells in bone marrow ([8]; 10 mg/kg IP, 21 days): significant increase
- Reduction in the percentage of long-lived plasma cells in the bone marrow compared to control ([8]; 5 and 10 mg/kg IP, 21 days, significant): ~30%
- B cells in the bone marrow (BM), overall ([8]; any dose of clozapine (2.5, 5, 10 mg/kg IP, 21 days)): No overall reduction
- Percentage of immature B cells in bone marrow ([8]; clozapine IP, 21 days): reduction
- Pre-B cells in bone marrow ([8]; dose-dependent, significant vs control even at 2.5 mg/kg): reduction
- Percentage of pre-B cells that were proliferating ([8]; reaching significance for the 5 mg/kg dose): diminished
- CNS penetration [9]: high levels of CNS penetration
- Reduction of anti-type II collagen IgG1 ([10]; 10 mg/kg from day 15): reaching statistical significance
- Serum anti-type II collagen IgG2a ([10]; 5 or 10 mg/kg from day 1 or day 15, single time point): no significant impact
- Levels of anti-type II collagen IgG1 ([10]; across all doses tested): nominal reductions
- Previously treatment refractive schizophrenia patients in whom effective [11]: approximately 60%
- IgG-Haemophilus B <1.0 mcg/ml, percentage of patients [12]: 51% and 51.2% and 51.1% and 49.4% and 50.9%
- IgG-Pneumococcus <35 mg/L, percentage of patients [12]: 39.0% and 38.3% and 37.9% and 45.6%
- IgG-Pneumococcus <50 mg/L, percentage of patients [12]: 52.1% and 50.6% and 54.4%
- IgG-Tetanus <0.1 IU/ml, percentage of patients [12]: 10.6% and 11.5% and 12.3%
- IgM-Pneumococcus, mean [12]: 58.5 U/L and 59.8 U/L and 60.4 U/L and 61.6 U/L
- Pneumococcal IgM level [12]: 58.5 U/ml
- Serum IgA and IgM following cessation of clozapine ([13]; FIG. 5 / one patient over 24 months): without clear improvement; also recorded: remained low
- Serum IgA, individual referred patient [13, 19]: IgA 0.54 g/L; also recorded: IgA < 0.22 g/L; also recorded: IgA 0.49 g/L; also recorded: IgA 0.38 g/L; also recorded: undetectable; also recorded: IgA 0.26 g/L; also recorded: IgA 0.81 g/L; also recorded: IgA 0.63 g/L
- Serum IgM, individual referred patient [13, 19]: IgM 0.3 g/L; also recorded: IgM < 0.17 g/L; also recorded: IgM 0.41 g/L; also recorded: IgM 0.23 g/L; also recorded: IgM 0.07 g/L; also recorded: IgM 0.18 g/L
- Serum IgG, individual referred patient ([13]; one line per patient of Table 3 (clozapine dose and duration differ)): IgG 4.8 g/L; also recorded: IgG < 1.34 g/L; also recorded: IgG 5.24 g/L; also recorded: IgG 2.68 g/L; also recorded: IgG 2.98 g/L; also recorded: IgG 1.2 g/L; also recorded: IgG 3.3 g/L; also recorded: IgG 2.38 g/L; also recorded: IgG 4.24 g/L; also recorded: IgG 6.65 g/L; also recorded: IgG 5.61 g/L; also recorded: IgG 4.79 g/L
- Serum IgG after clozapine stopped ([13]; one patient): IgG rose to 5.95 from g/L
- Serum IgG after clozapine stopped ([13]; one patient, listed as clozapine): 5.95 g/L
- Serum IgA after clozapine stopped ([13]; one patient, after 24 months): 0.29
- Serum IgM after clozapine stopped ([13]; one patient, after 24 months): 0.49 after 24 months
- Serum IgG after clozapine stopped, intermediate value ([13]; one patient, within the 24 months after discontinuation): 4.8 g/L
- Serum IgG post-discontinuation of clozapine ([13]; over three years (FIG. 5)): 5.95 g/L
- Mean serum IgA ([13]; referred patients on clozapine): 0.34 g/L
- Mean serum IgG ([13]; referred patients on clozapine): 3.6 g/L
- Mean serum IgM ([13]; referred patients on clozapine): 0.21 g/L
- Serum IgG at discontinuation of clozapine [13]: 3.3 g/L
- Serum IgG at discontinuation of clozapine ([13]; listed as clozapine): 3.5 g/L and 3.3 g/L
